In patent publication US4156725A (priority 1972, dated 1979):

Key:
Cl. perfringens = conditions: British Pat. No. 1303171 and application No. 36289/70; cited from earlier work
Derm. dermatonomous = conditions: British Pat. No. 1303171 and application No. 36289/70; cited from earlier work
[1] = molecular target: hydroxymethyldihydropteridine pyrophosphokinase (HMPPS) (Escherichia coli, UniProt P26281); test: Inhibition of the enzymes of dihydropteroate biosynthesis (ATP-γ-P32 transfer / dihydropteroate-C14 formation); assay type: biochemical; conditions: E. coli enzyme extract; tests of Example K; read-out: concentration giving 50% inhibition
Chain of hydroxymethyldihydropteridine pyrophosphokinase (HMPPS) (P26281 whole entry): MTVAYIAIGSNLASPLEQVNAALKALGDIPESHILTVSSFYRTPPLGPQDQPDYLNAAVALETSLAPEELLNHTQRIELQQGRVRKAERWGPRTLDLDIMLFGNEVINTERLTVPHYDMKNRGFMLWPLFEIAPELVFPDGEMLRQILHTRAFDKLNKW
Protocol: The inhibiting activity against HMPPS of a selected compound of formula (I) can, for instance, be tested by monitoring the transfer of the terminal phosphate of adenosinetriphosphate ATP-γ-p^32 to `dihydropteridine`. […] Such inhibition may, for instance, be easily and simply carried out by incubating an extract of E. coli with pAb-7-C^14, ATP, Mg and `dihydropteridine`. The formation of the dihydropteroate-C^14 can be quantitatively assayed after separating the unreacted pAB substrate, for instance by chromatography. […] Preferably the value is 25 μM or less, such as in the range between 2 to 12 μM. Generally a value below 7 μM is desirable. […]
(a) An assay for HMPPS was developed in which the transfer of the terminal phosphate of ATP-γ-P^32 to Pt could be monitored and correlated with the amount of inhibition of HMPPS by the compound under test. […]
Tubes 1 to 9 containing the amounts of components shown in the Table, were filled up to 200 μl with distilled water, incubated for 60 minutes at 37° C. and then chilled on ice. […] The charcoal and the filter were then radioactively counted. […]
(b) The activity of the test compound of formula (I) against `synthetase` was determined as follows, by monitoring the formation of dihydropteroate C^14. […]

SMILES | bacteriostatic activity (Cl. perfringens) | bacteriostatic activity (Derm. dermatonomous) | IC50 [1]
CC1(C)Nc2nc(N)nc(O)c2N=C1CO [2-amino-4-hydroxy-6-hydroxymethyl-7,7-dimethyl-7,8-dihydropteridine] | particularly effective | particularly effective | 
CC1=Nc2c(O)nc(N)nc2NC1(C)C [2-amino-4-hydroxy-6-methyl-7,7-dimethyl-7,8-dihydropteridine] | particularly effective | particularly effective | 
CC1(C)Nc2nc(N)nc(O)c2N=C1COc1ccccc1 [A, 2-Amino-4-hydroxy-6-phenoxymethyl-7,7-dimethyl-7,8-dihydropteridine] |  |  | 17 µM
